Reference: article PMC8887546, “Design and Synthesis of Brain Penetrant Glycopeptide Analogues of PACAP With Neuroprotective Potential for Traumatic Brain Injury and Parkinsonism” (Frontiers in drug discovery, 2022)

Tests used:
Assay type in all cases: cell-based
[1] = target: T1, human VPAC2 receptor (Homo sapiens, UniProt P41587); assay: cAMP stimulation in CHO cells expressing VPAC2; settings: for Emax: CHO; for Receptor selectivity ratio VPAC2/PAC1 / Receptor selectivity ratio VPAC2/VPAC1: ratio of cAMP EC50 values
T1 construct: expressed in transfected cells; host or cells: CHO cells (G418 selection)
T1 sequence (P41587 24-438): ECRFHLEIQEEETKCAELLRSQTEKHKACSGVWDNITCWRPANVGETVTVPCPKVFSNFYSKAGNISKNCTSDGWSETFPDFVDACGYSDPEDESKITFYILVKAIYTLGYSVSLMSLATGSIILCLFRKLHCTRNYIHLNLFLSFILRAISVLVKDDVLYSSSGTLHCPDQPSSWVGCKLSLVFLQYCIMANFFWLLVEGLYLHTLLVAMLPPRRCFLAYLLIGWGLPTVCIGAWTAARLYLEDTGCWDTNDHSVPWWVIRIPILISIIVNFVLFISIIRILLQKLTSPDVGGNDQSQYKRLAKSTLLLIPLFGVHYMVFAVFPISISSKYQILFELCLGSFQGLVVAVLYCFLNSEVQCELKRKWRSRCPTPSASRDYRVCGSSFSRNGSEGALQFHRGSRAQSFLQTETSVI
Protocol: Briefly, human PAC1, VPAC1, and VPAC2 receptors expressed in CHO cells were used for all experiments. Cells were grown in 50:50 DMEM-F12 medium with 10% heat-inactivated fetal bovine serum, 1X penicillin-streptomycin supplement, and 500 μg/ml G418 (neomycin) to maintain selection (all from ThermoFisher) at 37°C with 5% CO2 atmosphere. For the cAMP assay, cells were seeded at 20,000 cells/well in a 96 well plate, recovered overnight, then serum starved for 4 h. The cells were then incubated with 500 μM IBMX for 20 min, followed by agonist concentration curves in 500 μM IBMX media for 10 min. The reaction was terminated, boiled, then collected, followed by competition with 7 μg of bovine protein kinase A (Sigma-Aldrich) and ∼1 pmol of ^3H-cAMP (PerkinElmer). The assay was incubated at room temp for 1 h, then collected onto GF/B filter plates and the data read using a MicroBeta2 scintillation counter (PerkinElmer).

[2] = target: T2, human VPAC1 receptor (Homo sapiens, UniProt P32241); assay: cAMP stimulation in CHO cells expressing VPAC1; settings: for Emax: CHO, read-out: VPAC1 Emax; for EC50: read-out: VPAC1 EC50; for Receptor selectivity ratio VPAC1/PAC1: ratio of cAMP EC50 values
T2 construct: expressed in transfected cells; host or cells: CHO cells (G418 selection)
T2 sequence (P32241 31-457): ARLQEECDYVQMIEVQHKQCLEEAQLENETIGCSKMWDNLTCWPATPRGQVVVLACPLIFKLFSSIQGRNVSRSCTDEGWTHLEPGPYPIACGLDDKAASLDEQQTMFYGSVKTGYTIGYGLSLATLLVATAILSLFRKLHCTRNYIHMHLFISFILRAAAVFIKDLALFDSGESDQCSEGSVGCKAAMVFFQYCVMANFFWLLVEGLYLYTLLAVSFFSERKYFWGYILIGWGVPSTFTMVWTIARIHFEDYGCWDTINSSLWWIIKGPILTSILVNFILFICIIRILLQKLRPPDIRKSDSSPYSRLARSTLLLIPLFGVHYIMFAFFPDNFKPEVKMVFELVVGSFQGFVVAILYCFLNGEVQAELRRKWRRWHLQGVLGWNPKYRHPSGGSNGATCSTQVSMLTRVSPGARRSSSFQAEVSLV

[3] = target: T3, human PAC1 receptor (Homo sapiens, UniProt P41586); assay: cAMP stimulation in CHO cells expressing PAC1; settings: for Emax: CHO
T3 construct: expressed in transfected cells; host or cells: CHO cells (G418 selection)
T3 sequence (P41586 21-468): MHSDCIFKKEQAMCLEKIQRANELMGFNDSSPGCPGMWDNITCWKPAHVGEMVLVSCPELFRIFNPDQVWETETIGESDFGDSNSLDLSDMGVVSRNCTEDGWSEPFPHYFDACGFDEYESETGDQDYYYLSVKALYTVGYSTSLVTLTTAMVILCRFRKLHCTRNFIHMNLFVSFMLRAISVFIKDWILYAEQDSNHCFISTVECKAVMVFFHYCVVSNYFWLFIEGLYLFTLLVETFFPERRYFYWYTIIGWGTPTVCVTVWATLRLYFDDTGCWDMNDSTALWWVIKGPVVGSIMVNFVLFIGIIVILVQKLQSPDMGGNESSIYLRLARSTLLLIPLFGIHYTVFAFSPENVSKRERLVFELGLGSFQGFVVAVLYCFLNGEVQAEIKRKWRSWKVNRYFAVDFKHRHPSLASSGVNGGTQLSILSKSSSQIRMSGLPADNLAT
Method in brief: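 Serum-starved CHO cells expressing human receptors were pre-treated 20 min with 500 μM IBMX, then exposed to agonist concentration curves for 10 min in 500 μM IBMX. cAMP quantified by competition with bovine PKA and ^3H-cAMP (1 h, room temperature), scintillation read.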

Row | SMILES | EC50 [1] [nM] | Emax [1] [%] | Emax [2] [%] | EC50 [2] [nM] | EC50 [3] [nM] | Emax [3] [%] | Receptor selectivity ratio VPAC2/PAC1 [1] | Receptor selectivity ratio VPAC2/VPAC1 [1] | Receptor selectivity ratio VPAC1/PAC1 [2] | Selectivity for PAC1 over VPAC1 ([3]; from cAMP EC50 values) [fold] | Selectivity for PAC1 over VPAC2 ([3]; from cAMP EC50 values) [fold]
1 | CCC[C@H](NC(=O)[C@H](CCC(N)=O)NC(=O)[C@H](CCCCN)NC(=O)[C@H](CCCNC(=N)N)NC(=O)[C@H](Cc1ccc(O)cc1)NC(=O)[C@H](CCCNC(=N)N)NC(=O)[C@H](CO)NC(=O)[C@H](Cc1ccc(O)cc1)NC(=O)[C@H](CO)NC(=O)[C@H](CC(=O)O)NC(=O)[C@@H](NC(=O)[C@H](Cc1ccccc1)NC(=O)[C@@H](CCC)NC(=O)CNC(=O)[C@H](CC(=O)O)NC(=O)[C@@H](CO)NC(=O)[C@H](Cc1c[nH]cn1)NC(C)=O)[C@@H](C)O)C(=O)N[C@@H](C)C(=O)N[C@H](C(=O)N[C@@H](CCCCN)C(=O)N[C@@H](CCCCN)C(=O)N[C@@H](Cc1ccc(O)cc1)C(=O)N[C@@H](CC(C)C)C(=O)N[C@@H](C)C(=O)N[C@@H](C)C(=O)N[C@H](C(=O)N[C@@H](CC(C)C)C(=O)N[C@@H](CO[C@@H]1O[C@H](CO)[C@@H](O)[C@H](O)[C@H]1O)C(N)=O)C(C)C)C(C)C [Ac-CRA 3020] | > 2500 | 71 | 36 | 244 | > 2500 | 61 | – | – | – | – | –
2 | CCC[C@H](NC(=O)[C@H](CCC(N)=O)NC(=O)[C@H](CCCCN)NC(=O)[C@H](CCCNC(=N)N)NC(=O)[C@H](Cc1ccc(O)cc1)NC(=O)[C@H](CCCNC(=N)N)NC(=O)[C@H](CO)NC(=O)[C@H](Cc1ccc(O)cc1)NC(=O)[C@H](CO)NC(=O)[C@H](CC(=O)O)NC(=O)[C@@H](NC(=O)[C@H](Cc1ccccc1)NC(=O)[C@@H](NC(=O)CN(C)C(=O)[C@H](CC(=O)O)NC(=O)[C@@H](CO)NC(=O)[C@@H](N)Cc1c[nH]cn1)[C@@H](C)CC)[C@@H](C)O)C(=O)N[C@@H](C)C(=O)N[C@H](C(=O)N[C@@H](CCCCN)C(=O)N[C@@H](CCCCN)C(=O)N[C@@H](Cc1ccc(O)cc1)C(=O)N[C@@H](CC(C)C)C(=O)N[C@@H](C)C(=O)N[C@@H](C)C(=O)N[C@H](C(=O)N[C@@H](CC(C)C)C(=O)N[C@@H](CO[C@@H]1O[C@H](CO)[C@@H](O)[C@H](O)[C@H]1O)C(N)=O)C(C)C)C(C)C [CRA 3007] | 706 | 70 | 111 | 165 | 30 | 88 | 23.53 | 4.28 | 5.50 | ~5 | ~24
3 | CCC[C@H](NC(=O)[C@H](CCC(N)=O)NC(=O)[C@H](CCCCN)NC(=O)[C@H](CCCNC(=N)N)NC(=O)[C@H](Cc1ccc(O)cc1)NC(=O)[C@H](CCCNC(=N)N)NC(=O)[C@H](CO)NC(=O)[C@H](Cc1ccc(O)cc1)NC(=O)[C@H](CO)NC(=O)[C@H](CC(=O)O)NC(=O)[C@@H](NC(=O)[C@H](Cc1ccccc1)NC(=O)[C@H](CC(C)C)NC(=O)CNC(=O)[C@H](CC(=O)O)NC(=O)[C@@H](CO)NC(=O)[C@@H](N)Cc1c[nH]cn1)[C@@H](C)O)C(=O)N[C@@H](C)C(=O)N[C@H](C(=O)N[C@@H](CCCCN)C(=O)N[C@@H](CCCCN)C(=O)N[C@@H](Cc1ccc(O)cc1)C(=O)N[C@@H](CC(C)C)C(=O)N[C@@H](C)C(=O)N[C@@H](C)C(=O)N[C@H](C(=O)N[C@@H](CC(C)C)C(=O)N[C@@H](CO[C@@H]1O[C@H](CO)[C@@H](O)[C@H](O)[C@H]1O)C(N)=O)C(C)C)C(C)C [CRA3013] | 650 | 88 | 113 | 20.9 | 88.9 | 74 | 7.31 | 31.10 | 0.24 | – | –
4 | CCC[C@H](NC(=O)[C@H](CCC(N)=O)NC(=O)[C@H](CCCCN)NC(=O)[C@H](CCCNC(=N)N)NC(=O)[C@H](Cc1ccc(O)cc1)NC(=O)[C@H](CCCNC(=N)N)NC(=O)[C@H](CO)NC(=O)[C@H](Cc1ccc(O)cc1)NC(=O)[C@H](CO)NC(=O)[C@H](CC(=O)O)NC(=O)[C@@H](NC(=O)[C@H](Cc1ccccc1)NC(=O)[C@@H](NC(=O)[C@H](C)NC(=O)[C@H](CC(=O)O)NC(=O)[C@@H](CO)NC(=O)[C@@H](N)Cc1c[nH]cn1)[C@@H](C)CC)[C@@H](C)O)C(=O)N[C@@H](C)C(=O)N[C@H](C(=O)N[C@@H](CCCCN)C(=O)N[C@@H](CCCCN)C(=O)N[C@@H](Cc1ccc(O)cc1)C(=O)N[C@@H](CC(C)C)C(=O)N[C@@H](C)C(=O)N[C@@H](C)C(=O)N[C@H](C(=O)N[C@@H](CC(C)C)C(=O)N[C@@H](CO[C@@H]1O[C@H](CO)[C@@H](O)[C@H](O)[C@H]1O)C(N)=O)C(C)C)C(C)C [CRA3010] | – | 112 | 107 | – | – | 89 | – | – | – | – | –
5 | CCC[C@H](NC(=O)[C@H](CCC(N)=O)NC(=O)[C@H](CCCCN)NC(=O)[C@H](CCCNC(=N)N)NC(=O)[C@H](Cc1ccc(O)cc1)NC(=O)[C@H](CCCNC(=N)N)NC(=O)[C@H](CO)NC(=O)[C@H](Cc1ccc(O)cc1)NC(=O)[C@H](CO)NC(=O)[C@H](CC(=O)O)NC(=O)[C@@H](NC(=O)[C@H](Cc1ccccc1)NC(=O)[C@@H](NC(=O)CNC(=O)[C@H](CC(=O)O)NC(=O)[C@@H](CO)NC(=O)[C@@H](N)Cc1c[nH]cn1)C(C)C)[C@@H](C)O)C(=O)N[C@@H](C)C(=O)N[C@H](C(=O)N[C@@H](CCCCN)C(=O)N[C@@H](CCCCN)C(=O)N[C@@H](Cc1ccc(O)cc1)C(=O)N[C@@H](CC(C)C)C(=O)N[C@@H](C)C(=O)N[C@@H](C)C(=O)N[C@H](C(=O)N[C@@H](CC(C)C)C(=O)N[C@@H](CO[C@@H]1O[C@H](CO)[C@@H](O)[C@H](O)[C@H]1O)C(N)=O)C(C)C)C(C)C [CRA 3012] | 1330 | 107 | 118 | 214 | 81.7 | 80 | 16.30 | 6.22 | 2.62 | – | –
6 | CCC[C@H](NC(=O)[C@H](CCC(N)=O)NC(=O)[C@H](CCCCN)NC(=O)[C@H](CCCNC(=N)N)NC(=O)[C@H](Cc1ccc(O)cc1)NC(=O)[C@H](CCCNC(=N)N)NC(=O)[C@H](CO)NC(=O)[C@H](Cc1ccc(O)cc1)NC(=O)[C@H](CO)NC(=O)[C@H](CC(=O)O)NC(=O)[C@@H](NC(=O)[C@H](Cc1ccccc1)NC(=O)[C@@H](NC(=O)[C@@H](C)NC(=O)[C@H](CC(=O)O)NC(=O)[C@@H](CO)NC(=O)[C@@H](N)Cc1c[nH]cn1)[C@@H](C)CC)[C@@H](C)O)C(=O)N[C@@H](C)C(=O)N[C@H](C(=O)N[C@@H](CCCCN)C(=O)N[C@@H](CCCCN)C(=O)N[C@@H](Cc1ccc(O)cc1)C(=O)N[C@@H](CC(C)C)C(=O)N[C@@H](C)C(=O)N[C@@H](C)C(=O)N[C@H](C(=O)N[C@@H](CC(C)C)C(=O)N[C@@H](CO[C@@H]1O[C@H](CO)[C@@H](O)[C@H](O)[C@H]1O)C(N)=O)C(C)C)C(C)C [CRA3021] | 517 | 74 | 103 | 37.7 | 32.3 | 90 | 16.01 | 13.71 | 1.17 | – | –
